Reference: patent publication US20250376474A1, “RET-LDD PROTEIN DEGRADERS” (Bristol-Myers Squibb Company, priority 2022, published 2025)

Molecular target: T1, CCDC6-RET fusion expressing papillary thyroid carcinoma (TPC-1) cell line (Homo sapiens, UniProt P07949)
T1 construct: RET protein abundance (and therefore degradation) directly corresponds to luminescence intensity; CCDC6 (fusion partner, N-terminal part); endogenous in cells; host or cells: TPC-1 (papillary thyroid carcinoma), parental; the other entry of the earlier key: CCDC6 (Q16204, Coiled-coil domain-containing protein 6)
T1 sequence (P07949 with tags, fused parts or gaps): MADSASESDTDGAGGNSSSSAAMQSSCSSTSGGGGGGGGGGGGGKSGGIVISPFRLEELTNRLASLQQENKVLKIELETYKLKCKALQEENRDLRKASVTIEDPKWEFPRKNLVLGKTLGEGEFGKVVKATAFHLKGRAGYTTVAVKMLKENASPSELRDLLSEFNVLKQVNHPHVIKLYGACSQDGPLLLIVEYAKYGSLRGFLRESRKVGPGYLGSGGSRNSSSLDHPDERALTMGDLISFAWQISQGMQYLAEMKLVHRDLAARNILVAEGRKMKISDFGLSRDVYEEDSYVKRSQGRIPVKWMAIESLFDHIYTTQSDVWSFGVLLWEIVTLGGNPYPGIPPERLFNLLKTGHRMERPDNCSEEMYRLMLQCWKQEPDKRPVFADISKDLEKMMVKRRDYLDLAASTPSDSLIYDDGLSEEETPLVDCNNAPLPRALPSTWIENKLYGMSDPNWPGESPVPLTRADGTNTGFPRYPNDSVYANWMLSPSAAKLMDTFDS
Experiment: Cellular RET degradation assay (AlphaLISA Surefire Ultra, tRET) in TPC-1/CCDC6-RET cells
Format: cell-based
Details: TPC1, maximum % degradation (YMax) from 4-parameter logistic fit, parental TPC-1/CCDC6-RET cells, 24 hrs treatment, read-out: Cell Density TPC-1/CCDC6-RET YMax (%)
Experimental: Cellular RET degradation compound potency was determined using the bead-based luminescent amplification assay—AlphaLISA Surefire Ultra Detection Kit (Perkin-Elmer). The CCDC6-RET fusion expressing papillary thyroid carcinoma (TPC-1) cell line was selected for screening of potential degraders: Parental (TPC-1/CCDC6-RET). Cells were plated in 384 well culture plates (Greiner Bio-One) at 10,000 cells/well in 50ul/well DMEM (Fisher Scientific) with 2% FBS serum (Gibco). After cellular adhesion (4 hrs), cells were treated with compound by dispensing 25nl of serially diluted compound (1:3 dilution: 1 ipoint) directly into the cell culture wells using an Echo-655 acoustic liquid dispenser (Beckman). Low normalization wells were media only and high normalization wells were cells treated with DMSO only. Treated cell plates were placed in an incubator at 37C and 5% CO2 for 24 hrs. At 24 hrs, cell media was removed by a FELIX automated liquid hander (Analytik Jena) and 25ul of cell lysis buffer (provided in AlphaLisa kit) was added to each well. 5ul cell lysate were transferred into a 384-well microplate (Perkin Elmer) before addition of 2.5ul AlphaLISA Acceptor Bead mix. The plates were sealed and kept at room temperature for 1 hr before addition of donor bead mixture. Donor bead addition was performed in the dark and incubated for >1 hr before AlphaLISA luminescence was measured on an Envision plate reader with an Alphascreen aperture at RT (excitation 680 nm, emission 615 nm). RET protein abundance (and therefore degradation) directly corresponds to luminescence intensity.
Intensities were normalized relative to the average values from 16 wells containing media alone (blank-low) and 16 wells containing cells +DMSO (high). % Degradation for each well was determined using the standard equation, where
DC50 (IC50) values for each compound tested are calculated by analyzing plots of % degradation versus compound concentration, and fitting to the standard 4-parameter logistic curve where,
Top and bottom are the % degradation at infinitely large and infinitely small compound concentrations, respectively, while Halfmax is the compound concentration yielding % degradation corresponding tob½ Top-Bottom, and N is the Hill coefficient. DC50 values are calculated according to the relationship,
Compound replicates were performed in independent assays. Maximum degradation (YMax) was defined as the maximal % degradation value from the 4-parameter logistic equation, as previously described.
The half-maximal degradation concentration (DC50) and % degradation response (Ymax) are included in Table 3.

Row | SMILES | Dmax
1 | COCc1ccc(NC(=O)c2c(C#CC3CCN(C(=O)CCN4CCC5(CC4)CCN(c4ccc6c(c4)CN(C4CCC(=O)NC4=O)C6=O)CC5)CC3)c(C(C)C)n3ncnc(N)c23)cc1 (stereo not shown) [Example 10, 4-amino-6-((1-(3-(9-(2-(2,6-dioxopiperidin-3-yl)-1-oxoisoindolin-5-yl)-3,9-diazaspiro[5.5]undecan-3-yl)propanoyl)piperidin-4-yl)ethynyl)-7-isopropyl-N-(4-(methoxymethyl)phenyl)pyrrolo[2,1-f][1,2,4]triazine-5-carboxamide] | 78.9%
2 | COCc1ccc(NC(=O)c2c(C#CC3CCN(C(=O)CCCCCCN4CCN(c5ccc6c(c5)C(=O)N(C5CCC(=O)NC5=O)C6)CC4)CC3)c(C(C)C)n3ncnc(N)c23)cc1 (stereo not shown) [Example 3, 4-amino-6-((1-(7-(4-(2-(2,6-dioxopiperidin-3-yl)-3-oxoisoindolin-5-yl)piperazin-1-yl)heptanoyl)piperidin-4-yl)ethynyl)-7-isopropyl-N-(4-(methoxymethyl)phenyl)pyrrolo[2,1-f][1,2,4]triazine-5-carboxamide] | 91.8%
3 | COCc1ccc(NC(=O)c2c(C#CC3CCN(C(=O)CCCCCCN4CCC(c5ccc6c(c5)C(=O)N(C5CCC(=O)NC5=O)C6)CC4)CC3)c(C(C)C)n3ncnc(N)c23)cc1 (stereo not shown) [Example 4, 4-amino-6-((1-(7-(4-(2-(2,6-dioxopiperidin-3-yl)-3-oxoisoindolin-5-yl)piperidin-1-yl)heptanoyl)piperidin-4-yl)ethynyl)-7-isopropyl-N-(4-(methoxymethyl)phenyl)pyrrolo[2,1-f][1,2,4]triazine-5-carboxamide] | 97.6%
4 | COCc1ccc(NC(=O)c2c(C#CC3CCN(C(=O)CCCCN4CCC(c5ccc6c(c5)C(=O)N(C5CCC(=O)NC5=O)C6)CC4)CC3)c(C(C)C)n3ncnc(N)c23)cc1 (stereo not shown) [Example 7, 4-amino-6-((1-(5-(4-(2-(2,6-dioxopiperidin-3-yl)-3-oxoisoindolin-5-yl)piperidin-1-yl)pentanoyl)piperidin-4-yl)ethynyl)-7-isopropyl-N-(4-(methoxymethyl)phenyl)pyrrolo[2,1-f][1,2,4]triazine-5-carboxamide] | 90.1%

Other lines, results leading:

Row | Dmax | SMILES
5 | 86.3% | COCc1ccc(NC(=O)c2c(C#CC3CCN(C(=O)CCCCN4CCC(c5ccc6c(c5)CN(C5CCC(=O)NC5=O)C6=O)CC4)CC3)c(C(C)C)n3ncnc(N)c23)cc1 (stereo not shown) [Example 8, 4-amino-6-((1-(5-(4-(2-(2,6-dioxopiperidin-3-yl)-1-oxoisoindolin-5-yl)piperidin-1-yl)pentanoyl)piperidin-4-yl)ethynyl)-7-isopropyl-N-(4-(methoxymethyl)phenyl)pyrrolo[2,1-f][1,2,4]triazine-5-carboxamide]
6 | 87.4% | COCc1ccc(NC(=O)c2c(C#CC3CCN(C(=O)CCCCCCN4CCC(c5ccc6c(c5)CN(C5CCC(=O)NC5=O)C6=O)CC4)CC3)c(C(C)C)n3ncnc(N)c23)cc1 (stereo not shown) [Example 2, 4-amino-6-((1-(7-(4-(2-(2,6-dioxopiperidin-3-yl)-1-oxoisoindolin-5-yl)piperidin-1-yl)heptanoyl)piperidin-4-yl)ethynyl)-7-isopropyl-N-(4-(methoxymethyl)phenyl)pyrrolo[2,1-f][1,2,4]triazine-5-carboxamide]
7 | 97.3% | COCc1ccc(NC(=O)c2c(C#CC3CCN(C(=O)CCCCN4CCN(c5ccc6c(c5)C(=O)N(C5CCC(=O)NC5=O)C6)CC4)CC3)c(C(C)C)n3ncnc(N)c23)cc1 (stereo not shown) [Example 6, 4-amino-6-((1-(5-(4-(2-(2,6-dioxopiperidin-3-yl)-3-oxoisoindolin-5-yl)piperazin-1-yl)pentanoyl)piperidin-4-yl)ethynyl)-7-isopropyl-N-(4-(methoxymethyl)phenyl)pyrrolo[2,1-f][1,2,4]triazine-5-carboxamide]
8 | 79.9% | COCc1ccc(NC(=O)c2c(C#CC3CCN(C(=O)CCCCN4CCN(c5ccc6c(c5)CN(C5CCC(=O)NC5=O)C6=O)CC4)CC3)c(C(C)C)n3ncnc(N)c23)cc1 (stereo not shown) [Example 5, 4-amino-6-((1-(5-(4-(2-(2,6-dioxopiperidin-3-yl)-1-oxoisoindolin-5-yl)piperazin-1-yl)pentanoyl)piperidin-4-yl)ethynyl)-7-isopropyl-N-(4-(methoxymethyl)phenyl)pyrrolo[2,1-f][1,2,4]triazine-5-carboxamide]
9 | 84.5% | COCc1ccc(NC(=O)c2c(C#CC3CCN(C(=O)CCCCCCN4CCN(c5ccc6c(c5)CN(C5CCC(=O)NC5=O)C6=O)CC4)CC3)c(C(C)C)n3ncnc(N)c23)cc1 (stereo not shown) [Example 1]
10 | 79.1% | COCc1ccc(NC(=O)c2c(C#CC3CCN(C(=O)CN4CCC5(CC4)CCN(c4ccc6c(c4)CN(C4CCC(=O)NC4=O)C6=O)CC5)CC3)c(C(C)C)n3ncnc(N)c23)cc1 (stereo not shown) [Example 9, 4-amino-6-((1-(2-(9-(2-(2,6-dioxopiperidin-3-yl)-1-oxoisoindolin-5-yl)-3,9-diazaspiro[5.5]undecan-3-yl)acetyl)piperidin-4-yl)ethynyl)-7-isopropyl-N-(4-(methoxymethyl)phenyl)pyrrolo[2,1-f][1,2,4]triazine-5-carboxamide]
